Measured values published in ChEMBL document CHEMBL3044672, “N9- and N7-(Chloromethyl Phenymethyl)Chloropurine Derivatives from , '-Dichloroxylenes: Synthesis and Anticancer Activity” (2005).

How the values were obtained:
Type in all cases: functional
HOP-92 = test: Cytotoxicity against Homo sapiens (human) HOP92 cells after 48 hr by sulforhodamine B assay; settings: HOP-92, 48 h
NCI-H226 = test: Cytotoxicity against Homo sapiens (human) NCI-H226 cells after 48 hr by sulforhodamine B assay; settings: NCI-H226, 48 h
UACC-62 = test: Cytotoxicity against Homo sapiens (human) UACC62 cells after 48 hr by sulforhodamine B assay; settings: UACC-62, 48 h
SNB-19 = test: Cytotoxicity against Homo sapiens (human) SNB19 cells after 48 hr by sulforhodamine B assay; settings: SNB-19, 48 h
A498 = test: Cytotoxicity against Homo sapiens (human) A498 cells after 48 hr by sulforhodamine B assay; settings: A498, 48 h
786-0 = test: Cytotoxicity against Homo sapiens (human) 786-0 cells after 48 hr by sulforhodamine B assay; settings: 786-0, 48 h
Hs-578T = test: Cytotoxicity against Homo sapiens (human) Hs 578T cells after 48 hr by sulforhodamine B assay
TK-10 = test: Cytotoxicity against Homo sapiens (human) TK10 cells after 48 hr by sulforhodamine B assay; settings: TK-10, 48 h
NCI-H460 = test: Cytotoxicity against Homo sapiens (human) NCI-H460 cells assessed as cell growth at 10^-4 M after 48 hr by Alamar blue assay; settings: NCI-H460, 48 h, read-out: Activity
K562 = test: Cytotoxicity against Homo sapiens (human) K562 cells after 48 hr by sulforhodamine B assay; settings: K562, 48 h
MDA-MB-435 = test: Cytotoxicity against Homo sapiens (human) MDA-MB-435 cells after 48 hr by sulforhodamine B assay; settings: MDA-MB-435, 48 h
SF-268 = test: Cytotoxicity against Homo sapiens (human) SF268 cells assessed as cell growth at 10^-4 M after 48 hr by […] assay; settings: SF-268, 48 h, read-out: Activity
KM12 = test: Cytotoxicity against Homo sapiens (human) KM12 cells after 48 hr by sulforhodamine B assay; settings: KM12, 48 h
OVCAR-4 = test: Cytotoxicity against Homo sapiens (human) OVCAR4 cells after 48 hr by sulforhodamine B assay; settings: OVCAR-4, 48 h
RPMI-8226 = test: Cytotoxicity against Homo sapiens (human) RPMI8226 cells after 48 hr by sulforhodamine B assay; settings: RPMI-8226, 48 h
ACHN = test: Cytotoxicity against Homo sapiens (human) ACHN cells after 48 hr by sulforhodamine B assay
UACC-257 = test: Cytotoxicity against Homo sapiens (human) UACC257 cells after 48 hr by sulforhodamine B assay; settings: UACC-257, 48 h
COLO 205 = test: Cytotoxicity against Homo sapiens (human) COLO205 cells after 48 hr by sulforhodamine B assay; settings: COLO 205, 48 h
HCT-15 = test: Cytotoxicity against Homo sapiens (human) HCT15 cells after 48 hr by sulforhodamine B assay; settings: HCT-15, 48 h
NCI-H522 = test: Cytotoxicity against Homo sapiens (human) NCI-H522 cells after 48 hr by sulforhodamine B assay; settings: NCI-H522, 48 h
SN12C = test: Cytotoxicity against Homo sapiens (human) SN12C cells after 48 hr by sulforhodamine B assay
HCT-116 = test: Cytotoxicity against Homo sapiens (human) HCT116 cells after 48 hr by sulforhodamine B assay; settings: HCT-116, 48 h
A549 = test: Cytotoxicity against Homo sapiens (human) A549 cells after 48 hr by sulforhodamine B assay; settings: A549, 48 h
MDA-MB-231 = test: Cytotoxicity against Homo sapiens (human) MDA-MB-231 cells after 48 hr by sulforhodamine B assay; settings: MDA-MB-231, 48 h
SF-539 = test: Cytotoxicity against Homo sapiens (human) SF539 cells after 48 hr by sulforhodamine B assay; settings: SF-539, 48 h
[1] = read-out: LC50 (the source's name)

ClCc1ccc(Cn2cnc3c(Cl)ncnc32)cc1
GI50 (HOP-92): 6.02 µM
TGI (HOP-92): 66.1 µM
CC50 (HOP-92; [1]): > 100 µM
GI50 (NCI-H226): 1.58 µM
TGI (NCI-H226): 7.41 µM
CC50 (NCI-H226; [1]): 49 µM
GI50 (UACC-62): 1.23 µM
LC50 (concentration causing 50% net cell kill) (UACC-62): 9.45 µM
TGI (UACC-62): 33.9 µM
GI50 (SNB-19): 3.63 µM
LC50 (SNB-19): 89.1 µM
TGI (SNB-19): 21.9 µM
GI50 (A498): 12.9 µM
LC50 (lethal concentration, 50% cell kill) (A498): 57.5 µM
TGI (A498): 26.9 µM
GI50 (786-0): 1.02 µM
LC50 (786-0): 21.4 µM
TGI (786-0): 3.98 µM
GI50 (Hs-578T): 10.2 µM
LC50 (Hs-578T): > 100 µM
TGI (Hs-578T): 38.9 µM
GI50 (TK-10): 1.09 µM
TGI (TK-10): 4.67 µM
CC50 (TK-10; [1]): 22.9 µM
growth at 100 µM (NCI-H460): 0%
GI50 (K562): 2.91 µM
TGI (K562): > 100 µM
CC50 (K562; [1]): > 100 µM
GI50 (MDA-MB-435): 1.62 µM
LC50 (MDA-MB-435): 15.8 µM
TGI (MDA-MB-435): 4.36 µM
growth at 100 µM (SF-268): 26%
GI50 (KM12): 2.14 µM
TGI (KM12): 10.2 µM
CC50 (KM12; [1]): 95.5 µM
GI50 (OVCAR-4): 2.45 µM
LC50 (concentration killing 50% of cells) (OVCAR-4): > 100 µM
TGI (OVCAR-4): 6.6 µM
GI50 (RPMI-8226): 2.13 µM
TGI (RPMI-8226): 9.34 µM
CC50 (RPMI-8226; [1]): > 100 µM
GI50 (ACHN): 0.31 µM
TGI (ACHN): 1.28 µM
CC50 (ACHN; [1]): 3.8 µM
GI50 (UACC-257): 7.41 µM
LC50 (concentration killing 50% of cells) (UACC-257): 97.7 µM
TGI (UACC-257): 28.8 µM
GI50 (COLO 205): 2.23 µM
TGI (COLO 205): > 100 µM
CC50 (COLO 205; [1]): > 100 µM
GI50 (HCT-15): 1.95 µM
TGI (HCT-15): 12.6 µM
CC50 (HCT-15; [1]): 63.1 µM
GI50 (NCI-H522): 3.54 µM
TGI (NCI-H522): > 100 µM
CC50 (NCI-H522; [1]): > 100 µM
GI50 (SN12C): 1.02 µM
LC50 (50% lethal concentration) (SN12C): 5.37 µM
TGI (SN12C): 2.34 µM
GI50 (HCT-116): 1.12 µM
TGI (HCT-116): 2.45 µM
CC50 (HCT-116; [1]): 25.1 µM
GI50 (A549): 1.38 µM
TGI (A549): 18.2 µM
CC50 (A549; [1]): 51.3 µM
GI50 (MDA-MB-231): 1.77 µM
LC50 (MDA-MB-231): 8.7 µM
TGI (MDA-MB-231): 3.89 µM
LC50 (concentration killing 50% of cells) (SF-539): 70.8 µM
